Where “and” joins values, the source holds several entries; their conditions need not be identical. Identical values can stand only once. Entries after “also recorded” stand apart in the source; their conditions may differ. Like-named read-outs stand apart in the source and are kept apart here.
Experiments:
[1] = test system: TTX-sensitive Nav channels in mouse DRG neuron; format: cell-based; settings: for potency relative to JzTx-V (more potent): TTX-sensitive current
[2] = target: T1, hNav1.7 (Homo sapiens, UniProt Q15858); assay: cell-based; format: cell-based; settings: for block of hNav1.7 current: 100 pM peptide
[3] = target: T1, hNav1.7; assay: cell-based; settings: IonWorks Quattro; read-out: IC50 Nav1.7
[4] = target: T2, hNav1.5 (Homo sapiens, UniProt Q14524); assay: cell-based; settings: IonWorks Quattro; read-out: IC50 Nav1.5
T2 sequence (Q14524 whole entry): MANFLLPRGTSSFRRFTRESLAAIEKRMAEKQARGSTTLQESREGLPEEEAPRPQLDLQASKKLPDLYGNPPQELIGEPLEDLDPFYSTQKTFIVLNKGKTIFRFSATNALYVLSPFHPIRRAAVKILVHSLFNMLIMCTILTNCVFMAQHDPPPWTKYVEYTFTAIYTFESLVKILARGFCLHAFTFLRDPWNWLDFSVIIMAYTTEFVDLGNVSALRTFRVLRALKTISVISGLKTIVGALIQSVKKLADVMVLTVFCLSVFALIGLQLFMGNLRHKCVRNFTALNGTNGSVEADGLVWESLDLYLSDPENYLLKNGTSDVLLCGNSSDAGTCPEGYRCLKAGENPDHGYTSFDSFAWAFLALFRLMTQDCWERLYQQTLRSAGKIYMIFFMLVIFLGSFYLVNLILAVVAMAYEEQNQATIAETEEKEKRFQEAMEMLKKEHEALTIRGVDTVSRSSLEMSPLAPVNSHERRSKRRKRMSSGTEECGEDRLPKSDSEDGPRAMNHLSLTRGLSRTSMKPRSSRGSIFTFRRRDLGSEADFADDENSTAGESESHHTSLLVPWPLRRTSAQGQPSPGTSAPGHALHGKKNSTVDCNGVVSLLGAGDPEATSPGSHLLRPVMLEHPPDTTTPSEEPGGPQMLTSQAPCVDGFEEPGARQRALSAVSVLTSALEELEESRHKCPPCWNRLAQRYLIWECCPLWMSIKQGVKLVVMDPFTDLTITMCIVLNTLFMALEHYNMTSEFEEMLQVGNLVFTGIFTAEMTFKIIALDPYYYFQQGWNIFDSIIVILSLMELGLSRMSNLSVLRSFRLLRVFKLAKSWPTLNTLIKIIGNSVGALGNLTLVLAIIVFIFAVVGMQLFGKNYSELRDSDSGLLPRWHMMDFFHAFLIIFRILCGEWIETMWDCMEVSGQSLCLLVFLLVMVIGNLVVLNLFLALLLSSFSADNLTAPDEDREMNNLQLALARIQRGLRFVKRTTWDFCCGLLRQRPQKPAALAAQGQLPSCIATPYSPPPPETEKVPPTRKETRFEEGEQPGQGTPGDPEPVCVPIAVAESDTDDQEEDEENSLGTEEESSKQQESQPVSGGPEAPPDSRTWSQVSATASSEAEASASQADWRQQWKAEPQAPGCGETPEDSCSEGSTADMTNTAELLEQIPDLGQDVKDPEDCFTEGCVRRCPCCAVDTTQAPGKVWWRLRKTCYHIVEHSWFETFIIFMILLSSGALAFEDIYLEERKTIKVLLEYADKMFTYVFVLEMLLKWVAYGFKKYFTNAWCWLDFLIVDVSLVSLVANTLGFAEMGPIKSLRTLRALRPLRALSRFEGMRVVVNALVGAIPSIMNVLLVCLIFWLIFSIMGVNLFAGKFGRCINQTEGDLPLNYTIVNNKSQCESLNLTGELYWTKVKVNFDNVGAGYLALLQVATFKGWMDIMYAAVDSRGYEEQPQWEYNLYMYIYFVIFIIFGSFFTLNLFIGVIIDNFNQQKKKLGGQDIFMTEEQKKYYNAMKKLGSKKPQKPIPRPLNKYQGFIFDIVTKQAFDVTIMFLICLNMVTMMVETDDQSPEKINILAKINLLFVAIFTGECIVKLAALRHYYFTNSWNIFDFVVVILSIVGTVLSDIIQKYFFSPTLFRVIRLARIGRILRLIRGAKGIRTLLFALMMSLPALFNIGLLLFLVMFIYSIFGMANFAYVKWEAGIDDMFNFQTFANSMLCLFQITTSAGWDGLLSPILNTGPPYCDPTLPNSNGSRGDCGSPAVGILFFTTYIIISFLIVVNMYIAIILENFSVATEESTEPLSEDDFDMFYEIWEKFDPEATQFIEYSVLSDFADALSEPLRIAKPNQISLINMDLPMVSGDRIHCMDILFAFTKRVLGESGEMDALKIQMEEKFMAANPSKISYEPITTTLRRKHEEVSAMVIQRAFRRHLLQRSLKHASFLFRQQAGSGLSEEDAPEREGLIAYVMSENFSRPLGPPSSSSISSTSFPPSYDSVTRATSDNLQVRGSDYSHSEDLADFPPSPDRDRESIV

[5] = target: T3, hNav1.4 (Homo sapiens, UniProt P35499); assay: cell-based; settings: for IC50: IonWorks Quattro, read-out: IC50 Nav1.4
[6] = target: hNav1.3 (Homo sapiens, UniProt Q9NY46); assay: cell-based; settings: IonWorks Quattro; read-out: IC50 Nav1.3
Sequence of hNav1.3 (Q9NY46 whole entry): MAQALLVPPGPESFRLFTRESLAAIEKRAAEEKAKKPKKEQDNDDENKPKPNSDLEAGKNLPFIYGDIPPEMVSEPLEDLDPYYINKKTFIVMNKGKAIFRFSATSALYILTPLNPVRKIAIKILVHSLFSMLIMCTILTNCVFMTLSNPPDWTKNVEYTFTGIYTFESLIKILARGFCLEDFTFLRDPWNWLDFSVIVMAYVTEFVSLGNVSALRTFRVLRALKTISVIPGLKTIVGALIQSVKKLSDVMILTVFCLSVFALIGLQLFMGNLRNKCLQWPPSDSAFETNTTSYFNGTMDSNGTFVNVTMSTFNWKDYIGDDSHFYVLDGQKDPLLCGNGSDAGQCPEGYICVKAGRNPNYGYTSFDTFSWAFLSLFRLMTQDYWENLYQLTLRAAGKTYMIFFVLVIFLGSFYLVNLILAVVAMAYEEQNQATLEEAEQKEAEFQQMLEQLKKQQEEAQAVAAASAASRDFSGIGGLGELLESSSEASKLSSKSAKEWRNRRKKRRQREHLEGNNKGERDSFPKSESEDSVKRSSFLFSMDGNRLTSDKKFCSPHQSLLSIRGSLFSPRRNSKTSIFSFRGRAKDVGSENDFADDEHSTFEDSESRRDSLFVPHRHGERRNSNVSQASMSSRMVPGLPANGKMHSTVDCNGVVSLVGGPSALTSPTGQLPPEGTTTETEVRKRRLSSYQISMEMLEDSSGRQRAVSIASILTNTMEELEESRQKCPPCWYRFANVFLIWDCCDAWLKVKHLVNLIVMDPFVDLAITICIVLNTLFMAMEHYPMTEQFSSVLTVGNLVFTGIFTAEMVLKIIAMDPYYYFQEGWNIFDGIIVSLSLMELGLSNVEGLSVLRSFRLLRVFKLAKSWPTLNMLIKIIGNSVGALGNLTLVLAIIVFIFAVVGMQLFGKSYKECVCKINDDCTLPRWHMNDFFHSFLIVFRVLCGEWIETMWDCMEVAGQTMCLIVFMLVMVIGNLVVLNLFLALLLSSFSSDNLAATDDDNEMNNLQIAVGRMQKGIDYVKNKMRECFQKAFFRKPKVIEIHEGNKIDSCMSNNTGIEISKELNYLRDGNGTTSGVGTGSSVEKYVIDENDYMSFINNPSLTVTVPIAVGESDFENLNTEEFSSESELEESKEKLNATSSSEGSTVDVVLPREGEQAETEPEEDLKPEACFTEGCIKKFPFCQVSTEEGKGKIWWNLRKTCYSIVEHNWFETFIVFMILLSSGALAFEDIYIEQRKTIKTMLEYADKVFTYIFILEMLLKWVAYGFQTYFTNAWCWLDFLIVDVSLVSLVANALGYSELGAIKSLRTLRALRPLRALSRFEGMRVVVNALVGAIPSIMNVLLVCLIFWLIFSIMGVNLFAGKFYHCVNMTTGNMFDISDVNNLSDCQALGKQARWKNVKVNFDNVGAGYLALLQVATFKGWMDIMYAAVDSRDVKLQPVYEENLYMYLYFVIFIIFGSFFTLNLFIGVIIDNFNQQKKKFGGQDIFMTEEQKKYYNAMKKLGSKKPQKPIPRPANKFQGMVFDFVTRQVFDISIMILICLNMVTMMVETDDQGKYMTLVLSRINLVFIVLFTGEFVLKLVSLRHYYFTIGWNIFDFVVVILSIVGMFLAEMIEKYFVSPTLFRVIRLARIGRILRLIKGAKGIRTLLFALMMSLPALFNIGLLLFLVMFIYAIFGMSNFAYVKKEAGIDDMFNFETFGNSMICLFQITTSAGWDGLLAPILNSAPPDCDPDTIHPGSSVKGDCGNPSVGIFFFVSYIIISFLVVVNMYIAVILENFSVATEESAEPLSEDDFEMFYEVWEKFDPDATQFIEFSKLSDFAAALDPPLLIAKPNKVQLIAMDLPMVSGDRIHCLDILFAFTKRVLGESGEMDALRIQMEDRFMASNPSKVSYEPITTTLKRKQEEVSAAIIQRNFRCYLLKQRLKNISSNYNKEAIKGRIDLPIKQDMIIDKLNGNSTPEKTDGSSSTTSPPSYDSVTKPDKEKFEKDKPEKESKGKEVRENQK

[7] = target: T1, hNav1.7; assay: cell-based; format: cell-based; settings: PatchXpress, read-out: PX hNav1.7 Tonic IC50
[8] = target: T3, hNav1.4; assay: cell-based; settings: for IC50: PatchXpress, read-out: PX hNav1.4 Tonic IC50
[9] = target: T2, hNav1.5; assay: cell-based; settings: PatchXpress, read-out: PX hNav1.5 Tonic IC50
[10] = * = at high concentrations compound would wash off slowly or not at all

C#CC[C@H](N)C(=O)NCCCC[C@@H]1NC(=O)[C@H](CCCNC(=N)N)NC(=O)[C@H](CCCCN)NC(=O)[C@H](CO)NC(=O)[C@H](CC(=O)O)NC(=O)[C@@H]2CSSC[C@@H]3NC(=O)[C@H](CCCNC(=N)N)NC(=O)[C@H](CC(C)C)NC(=O)CNC(=O)[C@H](CCC(=O)O)NC(=O)[C@H](CSSC[C@H](NC(=O)[C@H](Cc4ccc(O)cc4)NC(=O)[C@@H](N)CC#N)C(=O)N[C@@H](CCC(N)=O)C(=O)N[C@@H](CCCCN)C(=O)N[C@@H](Cc4c[nH]c5ccccc45)C(=O)N[C@@H](CCCC)C(=O)N[C@@H](Cc4c[nH]c5ccccc45)C(=O)N[C@@H]([C@@H](C)O)C(=O)N2)NC(=O)[C@H](CSSC[C@@H](C(=O)N[C@@H](CCCNC(=N)N)C(=O)N[C@@H](CCCCN)C(=O)N[C@@H](CCC(=O)O)C(=O)N[C@H](C(N)=O)[C@@H](C)CC)NC(=O)[C@H](Cc2c[nH]c4ccccc24)NC(=O)[C@H](CC(C)C)NC(=O)[C@H](CCCCN)NC3=O)NC1=O [SEQ ID NO: 392, CyA-[Nle6,Lys(Pra)14,Glu28]JzTx-V(1-29)]
potency relative to JzTx-V (less potent) [1]: about 3 fold | block of TTX-sensitive Nav current ([1]; 300 nM SEQ ID NO:392, held at −88 mV): blocked most TTX-sensitive Nav current; also recorded: almost complete inhibition

C#CC[C@@H]1NC(=O)[C@@H]2CSSC[C@H](NC(=O)[C@H](Cc3ccc(O)cc3)NC(=O)[C@@H](N)CC#N)C(=O)N[C@@H](CCC(N)=O)C(=O)N[C@@H](CCCCN)C(=O)N[C@@H](Cc3c[nH]c4ccccc34)C(=O)N[C@@H](CCCC)C(=O)N[C@@H](Cc3c[nH]c4ccccc34)C(=O)N[C@@H]([C@@H](C)O)C(=O)N[C@H]3CSSC[C@H](NC(=O)[C@H](CCCNC(=N)N)NC(=O)[C@H](CC(C)C)NC(=O)CNC1=O)C(=O)N[C@@H](CCCCN)C(=O)N[C@@H](CC(C)C)C(=O)N[C@@H](Cc1c[nH]c4ccccc14)C(=O)N[C@H](C(=O)N[C@@H](CCCNC(=N)N)C(=O)N[C@@H](CCCCN)C(=O)N[C@@H](CCC(=O)O)C(=O)N[C@H](C(N)=O)[C@@H](C)CC)CSSC[C@H](NC(=O)[C@H](C)NC(=O)[C@H](CCCNC(=N)N)NC(=O)[C@H](CCCCN)NC(=O)[C@H](CO)NC(=O)[C@H](CC(=O)O)NC3=O)C(=O)N2 [SEQ ID NO: 395, CyA-[Nle6,Pra17,Glu28]JzTx-V(1-29)]
block of TTX-sensitive Nav current ([1]; 300 nM SEQ ID NO:395, held at −77 mV): fully blocked TTX-sensitive Nav current; also recorded: complete inhibition | potency relative to JzTx-V (more potent) ([1]; mouse DRG neurons): equipotent

C#CC[C@H](N)C(=O)N[C@@H](Cc1ccc(O)cc1)C(=O)N[C@H]1CSSC[C@@H]2NC(=O)[C@@H]3CSSC[C@@H](C(=O)N[C@@H](CCCNC(=N)N)C(=O)N[C@@H](CCCCN)C(=O)N[C@H](C(=O)N[C@H](C(N)=O)[C@@H](C)CC)[C@@H](C)CC)NC(=O)[C@H](Cc4c[nH]c5ccccc45)NC(=O)[C@H](CC(C)C)NC(=O)[C@H](CCCCN)NC(=O)[C@H](CSSC[C@H](NC(=O)[C@H]([C@@H](C)O)NC(=O)[C@H](Cc4c[nH]c5ccccc45)NC(=O)[C@H](CCCC)NC(=O)[C@H](Cc4c[nH]c5ccccc45)NC(=O)[C@H](CCCCN)NC(=O)[C@H](CCC(N)=O)NC1=O)C(=O)N[C@@H](CC(=O)O)C(=O)N[C@@H](CO)C(=O)N[C@@H](CCCCN)C(=O)N[C@@H](CCCNC(=N)N)C(=O)N[C@@H](C)C(=O)N3)NC(=O)[C@H](CCCNC(=N)N)NC(=O)[C@H](CC(C)C)NC(=O)CNC(=O)[C@H](CCC(=O)O)NC2=O [SEQ ID NO: 425, Pra-[Nle6]JzTx-V]
block of hNav1.7 current ([2]; held at −77 mV (partially inactivated state)): fully blocked Nav1.7 current; also recorded: complete inhibition | block of hNav1.7 current ([2]; held at −140 mV (fully non-inactivated state)): fully blocked Nav1.7 current; also recorded: complete inhibition | block of TTX-sensitive Nav current [1]: blocked most TTX-sensitive Nav current | inhibition of TTX-sensitive sodium current ([1]; 1 nM peptide (as printed in text), mouse DRG neurons): almost complete inhibition | potency relative to JzTx-V (more potent) ([1]; mouse DRG neurons): about 3 fold

NC1=N[C@H](O)[C@H]2[C@H]3O[C@]4(O)O[C@@H]([C@@H](O)[C@@]2(N1)[C@@H]4O)[C@]3(O)CO [TTX, tetrodotoxin, reference compound]
block of TTX-sensitive Nav current [1]: completely blocked TTX-sensitive Nav current

CCCC[C@H](NC(=O)[C@H](Cc1ccc(O)cc1)NC(=O)[C@H](CCCCN)NC(=O)[C@H](CCCNC(=N)N)NC(=O)[C@@H]1CSSC[C@@H]2NC(=O)[C@H](C)NC(=O)[C@H](CCCNC(=N)N)NC(=O)[C@H](CCCCN)NC(=O)[C@H](CO)NC(=O)[C@H](CC(=O)O)NC(=O)[C@@H]3CSSC[C@H](NC(=O)[C@H](CCC(=O)O)NC(=O)[C@H](CC(C)C)NC(=O)CNC(=O)[C@H](CCC(=O)O)NC(=O)[C@H](CSSC[C@H](NC(=O)[C@@H](N)Cc4ccc(O)cc4)C(=O)N[C@@H](CCC(N)=O)C(=O)N[C@@H](CCCCN)C(=O)N[C@@H](Cc4c[nH]c5ccccc45)C(=O)N[C@@H](CCSC)C(=O)N[C@@H](Cc4c[nH]c5ccccc45)C(=O)N[C@@H]([C@@H](C)O)C(=O)N3)NC2=O)C(=O)N[C@@H](CCCCN)C(=O)N[C@@H](CC(C)C)C(=O)N[C@@H](Cc2c[nH]c3ccccc23)C(=O)N1)C(N)=O [compound 239]
IC50 [3]: 79 nM | IC50 [4]: > 5000 nM | IC50 [5]: > 5000 nM | IC50 [6]: 4000 nM | IC50 [7, 10]: 6.2 nM | IC50 [8, 10]: 786 nM | IC50 [9, 10]: 9770 nM

CC[C@H](C)[C@H](NC(=O)[C@H](Cc1ccc(O)cc1)NC(=O)[C@H](CCCCN)NC(=O)[C@H](CCCNC(=N)N)NC(=O)[C@@H]1CSSC[C@@H]2NC(=O)[C@H](C)NC(=O)[C@H](CCCNC(=N)N)NC(=O)[C@H](CCCCN)NC(=O)[C@H](CO)NC(=O)[C@H](CC(=O)O)NC(=O)[C@@H]3CSSC[C@H](NC(=O)[C@H](CCC(=O)O)NC(=O)[C@H](CC(C)C)NC(=O)CNC(=O)[C@H](CCC(=O)O)NC(=O)[C@H](CSSC[C@H](NC(=O)[C@@H](N)CCC(=O)O)C(=O)N[C@@H](CCC(N)=O)C(=O)N[C@@H](CCCCN)C(=O)N[C@@H](Cc4c[nH]c5ccccc45)C(=O)N[C@@H](CCSC)C(=O)N[C@@H](Cc4c[nH]c5ccccc45)C(=O)N[C@@H]([C@@H](C)O)C(=O)N3)NC2=O)C(=O)N[C@@H](CCCCN)C(=O)N[C@@H](CC(C)C)C(=O)N[C@@H](Cc2c[nH]c3ccccc23)C(=O)N1)C(N)=O [compound 277]
IC50 [3]: 210 nM | IC50 [4]: 2000 nM | IC50 [5]: > 5000 nM | IC50 [6]: > 5000 nM | IC50 [7, 10]: 5.5 nM | IC50 [8, 10]: 939 nM | IC50 [9, 10]: > 10000 nM

C#CC[C@@H]1NC(=O)[C@H](CCCNC(=N)N)NC(=O)[C@H](CCCCN)NC(=O)[C@H](CO)NC(=O)[C@H](CC(=O)O)NC(=O)[C@@H]2CSSC[C@@H]3NC(=O)[C@H](CCCNC(=N)N)NC(=O)[C@H](CC(C)C)NC(=O)CNC(=O)[C@H](CCC(=O)O)NC(=O)[C@H](CSSC[C@H](NC(=O)[C@@H](N)Cc4ccc(O)cc4)C(=O)N[C@@H](CCC(N)=O)C(=O)N[C@@H](CCCCN)C(=O)N[C@@H](Cc4c[nH]c5ccccc45)C(=O)N[C@@H](CCCC)C(=O)N[C@@H](Cc4c[nH]c5ccccc45)C(=O)N[C@@H]([C@@H](C)O)C(=O)N2)NC(=O)[C@H](CSSC[C@@H](C(=O)N[C@@H](CCCNC(=N)N)C(=O)N[C@@H](CCCCN)C(=O)N[C@H](C(=O)N[C@H](C(N)=O)[C@@H](C)CC)[C@@H](C)CC)NC(=O)[C@H](Cc2c[nH]c4ccccc24)NC(=O)[C@H](CC(C)C)NC(=O)[C@H](CCCCN)NC3=O)NC1=O [compound 283]
IC50 [3]: 70 nM | IC50 [4]: > 7000 nM | IC50 [5]: 90 nM | Nav1.4/Nav1.7 ([5]; ratio of IonWorks Quattro IC50 values): 1 | IC50 [6]: 60 nM | IC50 ([7]; tonic block): 0.3 nM | IC50 ([8]; tonic block): 5 nM | Nav1.4/Nav1.7 ([8]; ratio of PX tonic IC50 values): 17 | IC50 ([9]; tonic block): 630 nM

C#CC[C@H](N)C(=O)N[C@@H](Cc1ccc(O)cc1)C(=O)N[C@H]1CSSC[C@@H]2NC(=O)[C@@H]3CSSC[C@@H](C(=O)N[C@@H](CCCNC(=N)N)C(=O)N[C@@H](CCCCN)C(=O)N[C@H](C(=O)N[C@H](C(N)=O)[C@@H](C)CC)[C@@H](C)CC)NC(=O)[C@H](Cc4c[nH]c5ccccc45)NC(=O)[C@H](CC(C)C)NC(=O)[C@H](CCCCN)NC(=O)[C@H](CSSC[C@H](NC(=O)[C@H]([C@@H](C)O)NC(=O)[C@H](Cc4c[nH]c5ccccc45)NC(=O)[C@H](CCCC)NC(=O)[C@H](Cc4c[nH]c5ccccc45)NC(=O)[C@H](CCCCN)NC(=O)[C@H](CCC(N)=O)NC1=O)C(=O)N[C@@H](CC(=O)O)C(=O)N[C@@H](CO)C(=O)N[C@@H](CCCCN)C(=O)N[C@@H](CCCNC(=N)N)C(=O)N[C@@H](C)C(=O)N3)NC(=O)[C@H](CCCNC(=N)N)NC(=O)[C@H](CC(C)C)NC(=O)CNC(=O)[C@H](CCC(=O)O)NC2=O [compound 425]
IC50 [3]: 8 nM and 13 nM | IC50 [8, 10]: 4 nM and 2.5 nM | IC50 [9, 10]: 970 nM and 700 nM | 1.x/1.7, fully non-inactivated ([2]; hNav1.7 vs hNav1.7, fully non-inactivated): 1 | 1.x/1.7, partially inactivated ([2]; hNav1.7 vs hNav1.7, partially inactivated): 1 | 1.x/1.7, partially inactivated ([1]; mTTX-S vs hNav1.7, partially inactivated): 6335
